Assay results taken from patent US20050118263A1, “Composition” (priority 2002, published 2005).

Key:
[1] = known from Yau et al. (1999) Neurosci Lett 277: 45-48; cited from earlier work
[2] = system: patients with type 2 diabetes; assay: Withdrawals from treatment in patients with type 2 diabetes; type: in vivo, human; conditions: carbenoxolone alone: of 8 patients, including one hospital admission with hypokalaemia
[3] = system: patients with type 2 diabetes; assay: Randomised double-blind placebo controlled crossover trial in type 2 diabetes patients: cognitive tests at end of each phase (Example 3); type: in vivo, human; conditions: 6 weeks per phase
Method: 12 patients with type 2 diabetes by World Health Organisation criteria (age range 52-70 y, mean 60.1 y), including 3 women and 9 men, participated in a randomised double-blind placebo controlled crossover trial comparing carbenoxolone (100 mg 8 hourly for 6 weeks by mouth) plus amiloride (10 mg daily by mouth) with placebo (8 hourly for 6 weeks by mouth) plus amiloride (10 mg daily by mouth). The two phases are separated by a washout period of 8 weeks. The order of carbenoxolone or placebo is randomised and the subjects and the experimenters are blind to the treatment given. At the end of each phase, tests of verbal fluency, verbal memory, visuospatial memory, attention and processing speed and intelligence are performed.

[4] = system: healthy, unmedicated men; assay: Randomised, double-blind, crossover trial in healthy men: cognitive tests at end of each phase (Example 2); type: in vivo, human; conditions: 4 weeks per phase, carbenoxolone 100 mg 8 hourly + amiloride 10 mg daily by mouth vs placebo + amiloride, p<0.01
Method: 10 healthy, unmedicated men (65.5 plus/minus SD 5.5y) participated in a randomised, double-blind, crossover trial comparing carbenoxolone (100 mg 8 hourly for 4 weeks by mouth) plus amiloride (10 mg daily by mouth) with placebo (8 hourly for 4 weeks by mouth) plus amiloride (10 mg daily by mouth). Each study phase lasts 4 weeks. The two phases are separated by an 8 week washout period. The order of carbenoxolone or placebo is randomised and the subjects and the experimenters are blind to the treatment given. Participants are asked to look out for potential adverse effects of carbenoxolone, including weight gain and pedal edema, and blood pressure and plasma electrolytes are monitored weekly. Compliance is assessed by pill counting and detecting carbenoxolone in plasma by high performance liquid chromatography. At the end of each phase, tests of verbal fluency, verbal memory, visuospatial memory, attention and processing speed, and intelligence are performed. Data are mean+/−SEM for the % change in cognitive score, calculated for each individual as (score with carbenoxolone+amiloride)−(score with placebo+amiloride)/(score with placebo+amiloride)×100. P values refer to comparison of absolute data in the two groups. Statistical analysis is conducted using Mann-Witney U tests and Friedman's non-parametric ANOVAs.

SMILES: CC(=O)S[C@@H]1CC2=CC(=O)CC[C@]2(C)[C@H]2CC[C@@]3(C)[C@@H](CC[C@@]34CCC(=O)O4)[C@H]12 [Spironolactone, 17-hydroxy-7-alpha-mercapto-3-oxo-17-alpha-pregn-4-ene-21-carboxylic acid gamma-lactone acetate]
- unwanted effects on cognitive function [1]: reduce cognitive function

SMILES: CC1(C)[C@@H](OC(=O)CCC(=O)O)CC[C@]2(C)[C@H]3C(=O)C=C4[C@@H]5C[C@@](C)(C(=O)O)CC[C@]5(C)CC[C@@]4(C)[C@]3(C)CC[C@@H]12 [carbenoxolone]
- withdrawals due to sodium retention [2]: 3

SMILES: NC(N)=NC(=O)c1nc(Cl)c(N)nc1N [Placebo with Amiloride, 3,5-diamino-6-chloro-N-(diaminomethylene) pyrazinecarboxamide]
- Processing speed: DSST, Mean (SD) ([3]; Digit Symbol Substitution test, p 0.78): 50.3 (6.7)
- Reasoning: RSPM, Mean (SD) ([3]; Ravens Standard Progressive Matrices, p 0.17): 44.0 (6.6)
- Verbal memory: Rey AVLT, Mean (SD) ([3]; Rey Auditory Verbal Learning Test, p <0.01): 56.1 (8.7)
- Verbal memory: WM Logical Memory, Mean (SD) ([3]; Wechsler Memory Scale-revised, p 0.78): 49.7 (13.8)
- Visual memory: WM Visual reproduction, Mean (SD) ([3]; Wechsler Memory Scale-revised, p 0.94): 59.9 (13.3)
- Executive function: Verbal Fluency, Mean (SD) ([3]; p 0.48 between phases): 42.2 (8.4)
- verbal fluency (Controlled Word Association test), mean/SD [4]: 41/12
